Results taken from patent publication US9828379B2 (priority 2013, dated 2017).

Assays:
[1] = target: T1, MAGL (Mus musculus, UniProt O35678); assay: In vitro competitive activity-based protein profiling (Table 2, % inhibition at 1 μM); format: biochemical; conditions: read-out: % Inhibition at 1 μM MAGL
T1 sequence (O35678 1-303): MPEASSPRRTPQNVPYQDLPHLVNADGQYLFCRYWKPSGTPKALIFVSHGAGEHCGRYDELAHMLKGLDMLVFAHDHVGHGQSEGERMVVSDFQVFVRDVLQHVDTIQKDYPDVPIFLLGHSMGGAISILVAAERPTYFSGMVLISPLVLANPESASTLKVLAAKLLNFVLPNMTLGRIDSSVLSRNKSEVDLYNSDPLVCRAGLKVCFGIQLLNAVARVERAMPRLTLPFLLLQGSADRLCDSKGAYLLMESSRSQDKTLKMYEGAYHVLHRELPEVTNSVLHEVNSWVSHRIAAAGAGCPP
Experimental: After 30 min, FP—Rh (1.0 μL, 50 μM in DMSO) was added and the mixture was incubated for another 30 min at 37° C. Reactions were quenched with SDS loading buffer (50 μL-4×) and run on SDS-PAGE.
Cell lysates were diluted with mock proteomes for use in competitive ABPP experiments.

[2] = target: T2, FAAH (Mus musculus, UniProt O08914); assay: biochemical; conditions: in vitro competitive ABPP
T2 sequence (O08914 1-579): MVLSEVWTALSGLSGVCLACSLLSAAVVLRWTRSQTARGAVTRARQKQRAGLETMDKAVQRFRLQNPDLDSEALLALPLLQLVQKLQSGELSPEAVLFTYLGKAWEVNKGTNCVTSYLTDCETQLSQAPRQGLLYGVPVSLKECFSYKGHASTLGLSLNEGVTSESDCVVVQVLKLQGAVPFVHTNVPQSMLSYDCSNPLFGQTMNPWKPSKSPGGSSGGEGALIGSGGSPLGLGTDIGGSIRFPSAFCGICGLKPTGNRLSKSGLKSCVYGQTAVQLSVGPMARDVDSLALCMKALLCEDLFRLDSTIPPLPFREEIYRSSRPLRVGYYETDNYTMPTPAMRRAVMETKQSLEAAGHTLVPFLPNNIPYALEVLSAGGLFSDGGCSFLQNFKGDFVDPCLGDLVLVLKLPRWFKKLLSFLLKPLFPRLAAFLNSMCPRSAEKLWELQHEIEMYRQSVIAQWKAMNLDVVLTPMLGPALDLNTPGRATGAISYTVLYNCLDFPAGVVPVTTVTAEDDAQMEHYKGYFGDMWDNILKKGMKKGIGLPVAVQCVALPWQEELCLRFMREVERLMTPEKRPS

[3] = target: T3, ABHD6 (Mus musculus, UniProt Q8R2Y0); assay: biochemical; conditions: in vitro competitive ABPP
T3 sequence (Q8R2Y0 1-336): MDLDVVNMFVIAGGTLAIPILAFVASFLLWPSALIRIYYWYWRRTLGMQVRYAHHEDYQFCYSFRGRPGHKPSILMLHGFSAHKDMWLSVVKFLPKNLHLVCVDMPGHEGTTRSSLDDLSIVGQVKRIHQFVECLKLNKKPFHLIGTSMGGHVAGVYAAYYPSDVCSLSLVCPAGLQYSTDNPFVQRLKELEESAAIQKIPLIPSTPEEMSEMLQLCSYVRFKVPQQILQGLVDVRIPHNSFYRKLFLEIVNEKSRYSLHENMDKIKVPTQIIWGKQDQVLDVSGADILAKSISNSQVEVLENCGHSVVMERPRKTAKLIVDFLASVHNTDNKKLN

[4] = target: T4, Mouse brain MAGL (Mus musculus, UniProt O35678); assay: Mouse brain proteomes from inhibitor treated mice (oral gavage, ABPP analysis); format: in vivo; conditions: p.o., sacrificed 4 h following administration
T4 construct: from tissue; host or cells: brain of wild-type C57Bl/6J mice dosed by oral gavage
T4 sequence (O35678 1-303): T1 sequence (O35678 1-303)
Experimental: After 30 min, FP—Rh (1.0 μL, 50 μM in DMSO) was added and the mixture was incubated for another 30 min at 37° C. Reactions were quenched with SDS loading buffer (50 μL-4×) and run on SDS-PAGE. Following gel imaging, serine hydrolase activity was determined by measuring fluorescent intensity of gel bands corresponding to MAGL, ABHD6 and FAAH using ImageJ 1.43 u software.
Inhibitors were administered to wild-type C57Bl/6J by oral gavage in a vehicle of polyethylene glycol. Each animal was sacrificed 4 h following administration and brain proteomes were prepared and analyzed according to previously established methods (See Niphakis, M. J., et al. (2011) ACS Chem. Neurosci. and Long, J. Z., et al. Nat. Chem. Biol. 5:37-44).

[5] = target: T2, FAAH; assay: In vitro competitive activity-based protein profiling (Table 2, % inhibition at 1 μM); format: biochemical; conditions: read-out: % Inhibition at 1 μM FAAH
[6] = target: T3, ABHD6; assay: as above; format: biochemical; conditions: read-out: % Inhibition at 1 μM ABHD6
[7] = target: T1, MAGL; assay: biochemical; conditions: mouse; in vitro competitive ABPP; read-out: Mouse (IC50 value, nM) MAGL

| SMILES | inhibition at 1 µM [1] [%] | IC50 [2] [nM] | IC50 [3] [nM] | inhibition at 5 mg/kg [4] [%] | inhibition at 1 µM [5] [%] | inhibition at 1 µM [6] [%] | IC50 [7] [nM] |
| --- | --- | --- | --- | --- | --- | --- | --- |
| CC(C)n1cc(CN2CC3CN(C(=O)OC(C(F)(F)F)C(F)(F)F)CC3C2)c(C2CCN(S(C)(=O)=O)CC2)n1 (stereo not shown) [Example 57, 1,1,1,3,3,3-Hexafluoropropan-2-yl 5-[[3-(1-methanesulfonylpiperidin-4-yl)-1-(propan-2-yl)-1H-pyrazol-4-yl]methyl]-octahydropyrrolo[3,4-c]pyrrole-2-carboxylate] | > 75 | > 10000 | 1000 to 10000 | ≤ 25 | < 25 | 25 to 75 | < 100 |
| O=C(OC(C(F)(F)F)C(F)(F)F)N1CC2CN(Cc3cccc(Cl)c3N3CCC4(CCOC4)C3)CC2C1 (stereo not shown) [Example 42, 1,1,1,3,3,3-Hexafluoropropan-2-yl 5-[(3-chloro-2-[2-oxa-7-azaspiro[4.4]nonan-7-yl]phenyl)methyl]-octahydropyrrolo[3,4-c]pyrrole-2-carboxylate] | > 75 | 1000 to 10000 | 1000 to 10000 | 25 to 75 | < 25 | < 25 | < 100 |
| CC(=O)N1CCN(c2cccc(CN3CC4CN(C(=O)OC(C(F)(F)F)C(F)(F)F)CC4C3)c2C)CC1 (stereo not shown) [Example 152, 1,1,1,3,3,3-hexafluoropropan-2-yl 5-[[3-(4-acetylpiperazin-1-yl)-2-methylphenyl]methyl]-octahydropyrrolo[3,4-c]pyrrole-2-carboxylate] | > 75 | 1000 to 10000 | 1000 to 10000 | ≤ 25 | < 25 | 25 to 75 | < 100 |
| CC(C)c1cc(CN2CC3CN(C(=O)OC(C(F)(F)F)C(F)(F)F)CC3C2)n(C2CCCCC2)n1 (stereo not shown) [Example 61, 1,1,1,3,3,3-Hexafluoropropan-2-yl 5-[[1-cyclohexyl-3-(propan-2-yl)-1H-pyrazol-5-yl]methyl]-octahydropyrrolo[3,4-c]pyrrole-2-carboxylate] | > 75 | > 10000 | 1000 to 10000 | ≥ 75 | < 25 | 25 to 75 | < 100 |
| O=C(OC(C(F)(F)F)C(F)(F)F)N1CC2CN(Cc3ccc(Cl)cc3N3CCC4(CCNC4=O)CC3)CC2C1 (stereo not shown) [Example 38, 1,1,1,3,3,3-Hexafluoropropan-2-yl 5-[(4-chloro-2-[1-oxo-2,8-diazaspiro[4.5]decan-8-yl]phenyl)methyl]-octahydropyrrolo[3,4-c]pyrrole-2-carboxylate] | > 75 | > 10000 | 1000 to 10000 | ≤ 25 | < 25 | < 25 | < 100 |
| CC(C)n1cc(CN2CC3CN(C(=O)OC(C(F)(F)F)C(F)(F)F)CC3C2)c(-c2cccc(Cl)c2)n1 (stereo not shown) [Example 174, 1,1,1,3,3,3-hexafluoropropan-2-yl 5-[[3-(3-chlorophenyl)-1-(propan-2-yl)-1H-pyrazol-4-yl]methyl]-octahydropyrrolo[3,4-c]pyrrole-2-carboxylate] | > 75 | 1000 to 10000 | 1000 to 10000 | ≤ 25 | < 25 | 25 to 75 | < 100 |
| CCn1cc(CN2CC3CN(C(=O)OC(C(F)(F)F)C(F)(F)F)CC3C2)c(-c2ccc(N3CCC3)cc2)n1 (stereo not shown) [Example 69, 1,1,1,3,3,3-Hexafluoropropan-2-yl 5-([3-[4-(azetidin-1-yl)phenyl]-1-ethyl-1H-pyrazol-4-yl]methyl)-octahydropyrrolo[3,4-c]pyrrole-2-carboxylate] | > 75 | 1000 to 10000 | 1000 to 10000 | ≤ 25 | < 25 | 25 to 75 | < 100 |
| CCn1cc(CN2CC3CN(C(=O)OC(C(F)(F)F)C(F)(F)F)CC3C2)c(-c2cccc(N3CCCC3)c2)n1 (stereo not shown) [Example 64, 1,1,1,3,3,3-Hexafluoropropan-2-yl 5-([1-ethyl-3-[3-(pyrrolidin-1-yl)phenyl]-1H-pyrazol-4-yl]methyl)-octahydropyrrolo[3,4-c]pyrrole-2-carboxylate] | > 75 | 1000 to 10000 | 1000 to 10000 | 25 to 75 | < 25 | < 25 | < 100 |
| O=C(OC(C(F)(F)F)C(F)(F)F)N1CC2CN(Cc3cccc(Cl)c3N3CC[C@H](CF)C3)CC2C1 (stereo partly drawn) [Example 173, 1,1,1,3,3,3-hexafluoropropan-2-yl 5-([3-chloro-2-[(3S)-3-(fluoromethyl)pyrrolidin-1-yl]phenyl]methyl)-octahydropyrrolo[3,4-c]pyrrole-2-carboxylate] | > 75 | 1000 to 10000 | > 10000 | 25 to 75 | < 25 | 25 to 75 | < 100 |
| O=C(OC(C(F)(F)F)C(F)(F)F)N1CC2CN(Cc3ccc(Cl)cc3N3CCOC4CCCC43)CC2C1 (stereo not shown) [Example 4, 1,1,1,3,3,3-Hexafluoropropan-2-yl 5-(4-chloro-2-(hexahydrocyclopenta[b][1,4]oxazin-4(4aH)-yl)benzyl)hexahydropyrrolo[3,4-c]pyrrole-2(1H)-carboxylate] | > 75 | 1000 to 10000 | 1000 to 10000 | ≤ 25 | < 25 | < 25 | 100 to 1000 |
| Cc1c(CN2CC3CN(C(=O)OC(C(F)(F)F)C(F)(F)F)CC3C2)cccc1N1CCCCC1 (stereo not shown) [Example 29, 1,1,1,3,3,3-Hexafluoropropan-2-yl 5-[[2-methyl-3-(piperidin-1-yl)phenyl]methyl]-octahydropyrrolo[3,4-c]pyrrole-2-carboxylate] | > 75 | 1000 to 10000 | > 10000 | ≤ 25 | 25 to 75 | < 25 | < 100 |
| CCn1ncc(CN2CC3CN(C(=O)OC(C(F)(F)F)C(F)(F)F)CC3C2)c1C(=O)NC1CC1 (stereo not shown) [Example 74] | > 75 | > 10000 | 100 to 1000 | 25 to 75 | < 25 | 25 to 75 | < 100 |
| O=C(OC(C(F)(F)F)C(F)(F)F)N1CC2CN(Cc3cccc(N4CCC5(CCOC5)C4)c3C(F)(F)F)CC2C1 (stereo not shown) [Example 128, 1,1,1,3,3,3-hexafluoropropan-2-yl 5-[(3-[2-oxa-7-azaspiro[4.4]nonan-7-yl]-2-(trifluoromethyl)phenyl)methyl]-octahydropyrrolo[3,4-c]pyrrole-2-carboxylate] | > 75 | 1000 to 10000 | 1000 to 10000 | ≤ 25 | < 25 | < 25 | < 100 |
